Patent US5773414A, “Endothelin antagonists” (Warner-Lambert Company, priority 1997, dated 1998)
Numbered stars: 1 amine (or outer) side, 2 acyl side, 3 side chain; on linkers, the order of the positions; unused ones are H or OH. Square brackets hold non-standard residues; d marks the D form. Peptide text beside a SMILES is read from it. * marks the point of attachment. X3 = Cc1c(C)c(C)c(C[C@@H](N[*:1])C(=O)[*:2])c(C)c1C; X2 = O=C([C@@H](Cc1c2ccccc2cc2ccccc12)N[*:1])[*:2]; Acetyl(1-adamantyl) = O=C(CC12CC3CC(CC(C3)C1)C2)*; dDip = N[C@@H](C(=O)O)C(c1ccccc1)c1ccccc1; d1Nal = N[C@H](Cc1cccc2ccccc12)C(=O)O; Acetyl(3-pyridyl) = O=C(Cc1cccnc1)*; X1 = CC(C(=O)*)(c1ccccc1)c1ccccc1; NHcHex = C1CCC(N*)CC1; CO = O=C([*:1])[*:2]; Piv = CC(C)(C)C(=O)*

Experiments:
ETA = biological target: T1, ETA (Oryctolagus cuniculus, UniProt A5A8K3); test: Endothelin Receptor Binding Assay-A (ETA), intact cell binding of [125I]-ET-1; design: species or system rabbit; settings: Table IIa; rabbit renal artery vascular smooth muscle cells; read-out: Binding Assay IC50 at Receptor Subtypes ETA
T1 construct: The cells used were rabbit renal artery vascular smooth muscle cells; endogenous in cells; host or cells: rabbit renal artery vascular smooth muscle cells
T1 sequence (A5A8K3 21-427): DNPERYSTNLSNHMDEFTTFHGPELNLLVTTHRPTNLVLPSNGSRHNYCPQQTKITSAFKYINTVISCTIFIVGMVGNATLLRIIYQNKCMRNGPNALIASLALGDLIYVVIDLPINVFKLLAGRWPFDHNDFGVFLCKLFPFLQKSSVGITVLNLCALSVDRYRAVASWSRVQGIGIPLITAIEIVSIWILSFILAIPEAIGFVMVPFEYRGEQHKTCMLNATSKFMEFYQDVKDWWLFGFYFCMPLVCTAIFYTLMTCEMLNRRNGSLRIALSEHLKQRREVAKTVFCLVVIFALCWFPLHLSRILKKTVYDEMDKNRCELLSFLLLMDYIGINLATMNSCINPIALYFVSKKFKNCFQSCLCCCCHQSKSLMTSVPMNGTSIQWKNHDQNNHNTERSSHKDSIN
Experimental: The cells used were rabbit renal artery vascular smooth muscle cells grown in a 48-well dish (1 cm^2) (confluent cells).
The growth media was Dulbeccos Modified Eagles/Ham's F12 which contained 10 fetal bovine serum and antibiotics (penicillin/streptomycin/fungizone).
Second, remove the assay buffers, place the dish on ice, and add 150 μL of cold assay buffer described above to each well. […] Next, place dish in a 37° C. water bath for about 2 hours and gently agitate the dish every 15 minutes. Discard the radioactive incubation mixture in the sink and wash wells 3 times with 1 mL of cold phosphate buffered saline. Last, add […] of 0.25M sodium hydroxide, agitate for 1 hour on rotator, and then transfer the sodium hydroxide extract to gamma counting tubes and count the radioactivity.

ETB = biological target: T2, ETB (Rattus norvegicus, UniProt P21451); test: Endothelin Receptor Binding Assay-B (ETB), [125I]-ET-1 binding in rat cerebellar membranes; settings: Table IIa; rat cerebellar membranes; read-out: Binding Assay IC50 at Receptor Subtypes ETB
T2 construct: thaw one aliquot of frozen rat cerebellar membranes; from tissue; host or cells: rat cerebellar membranes
T2 sequence (P21451 27-442): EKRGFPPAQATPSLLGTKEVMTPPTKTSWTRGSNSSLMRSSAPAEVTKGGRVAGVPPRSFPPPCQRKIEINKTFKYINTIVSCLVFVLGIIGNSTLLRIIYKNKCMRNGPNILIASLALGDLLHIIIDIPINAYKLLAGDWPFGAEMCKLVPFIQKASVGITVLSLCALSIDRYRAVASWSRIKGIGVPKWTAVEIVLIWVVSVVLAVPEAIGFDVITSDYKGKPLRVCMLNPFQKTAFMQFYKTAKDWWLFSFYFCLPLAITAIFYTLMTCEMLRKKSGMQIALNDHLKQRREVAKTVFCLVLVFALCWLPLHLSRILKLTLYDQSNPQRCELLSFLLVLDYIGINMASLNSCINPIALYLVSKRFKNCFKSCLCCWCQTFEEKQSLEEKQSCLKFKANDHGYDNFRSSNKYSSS
Experimental: The tissue is made up of 20 mM tris(hydroxymethyl)aminomethane hydrochloride (Trizma) buffer, 2 mM ethylenediaminetetraacetate, 100 μM phenylmethylsulfonyl fluoride.
First, thaw one aliquot of frozen rat cerebellar membranes (2 mg protein in 0.5 mL). Next, add 0.5 mL membrane aliquot to 4.5 mL cold tissue buffer, polytron at 7,500 revolutions per minute for 10 seconds. Finally, dilute tissue suspension 1/100 (0.1 mL suspension+9.9 mL tissue buffer), polytron again, and place ice.
Mix in 150 μL of tissue to each tube, vortex briefly, then tap to force all liquids to bottom (total assay volume=250 μL). Then place the tubes in a 37° C. water bath for 2 hours.
Add 2.5 mL cold water buffer (50 mM Trizma buffer) to each tube, filter, and then wash tube with additional 2.5 mL wash buffer and add to filter. Finally, wash filters with an additional 2.5 mL of cold wash buffer.
Count filters for radioactivity in gamma counter.

| SMILES | IC50 (ETA) [nM] | IC50 (ETB) [nM] |
| --- | --- | --- |
| CC[C@H](C)[C@H](NC(=O)[C@H](CC(=O)O)NC(=O)[C@H](CCC(=O)O)NC(=O)[C@@H](Cc1ccccc1)NC(C)=O)C(=O)N[C@H](C(=O)N[C@@H](Cc1c[nH]c2ccccc12)C(=O)O)[C@@H](C)CC [Example 9, Ac--D--Phe--Glu--Asp--Ile--Ile--Trp] (Ac-[dF]EDIIW-OH) | 650 | 1300 |
| CC[C@H](C)[C@H](NC(=O)[C@H](CC(=O)O)NC(=O)[C@H](CC(C)C)NC(=O)[C@@H](Cc1ccccc1)NC(C)=O)C(=O)N[C@H](C(=O)N[C@@H](Cc1ccc(O)cc1)C(=O)O)[C@@H](C)CC [Example 89, Ac--D--Phe--Leu--Asp--Ile--Ile--Tyr] (Ac-[dF]LDIIY-OH) | > 10000 | 220 |
| CC[C@H](C)[C@H](NC(=O)[C@H](CCCCN)NC(=O)[C@H](CC(C)C)NC(=O)[C@H](NC(C)=O)C(c1ccccc1)c1ccccc1)C(=O)N[C@H](C(=O)N[C@@H](Cc1c[nH]c2ccccc12)C(=O)O)[C@@H](C)CC [Example 69, Ac--D--Dip--Leu--Lys--Ile--Ile--Trp] (Ac-[dDip]LKIIW-OH) | 480 | 33 |
| CC[C@H](C)[C@H](NC(=O)[C@H](CC(=O)O)NC(=O)[C@H](CC(C)C)NC(=O)[C@@H](Cc1c(C)c(C)c(C)c(C)c1C)NC(C)=O)C(=O)N[C@H](C(=O)N[C@@H](Cc1c[nH]c2ccccc12)C(=O)O)[C@@H](C)CC [Example 53, Ac--D--Pmp--Leu--Asp--Ile--Ile--Trp] (Ac-[X3]LDIIW-OH) | 1500 | 5500 |
| CC[C@H](C)[C@H](NC(=O)[C@H](CC(=O)O)NC(=O)[C@H](CC(C)C)NC(=O)[C@H](NC(C)=O)C(c1ccccc1)c1ccccc1)C(=O)N[C@H](C(=O)N[C@@H](Cc1c[nH]c2ccccc12)C(N)=O)[C@@H](C)CC [Example 24, Ac--D--Dip--Leu--Asp--Ile--Ile--Trp--NH2] (Ac-[dDip]LDIIW-NH2) | 320 | 5000 |
| CC[C@H](C)[C@H](NC(=O)[C@H](CC(=O)O)NC(=O)[C@H](CC(C)C)NC(=O)[C@H](N)Cc1c2ccccc2cc2ccccc12)C(=O)N[C@H](C(=O)N[C@@H](Cc1c[nH]c2ccccc12)C(=O)O)[C@@H](C)CC [Example 54, D--Ana--Leu--Asp--Ile--Ile--Trp] (H-[X2]LDIIW-OH) | 5860 | 1210 |
| CC[C@H](C)[C@H](NC(=O)[C@H](CC(=O)O)NC(=O)[C@H](CC(C)C)NC(=O)[C@H](NC(=O)NC1CCCCC1)C(c1ccccc1)c1ccccc1)C(=O)N[C@H](C(=O)N[C@@H](Cc1c[nH]c2ccccc12)C(=O)O)[C@@H](C)CC [Example 36, Cxl(U)--D--Dip--Leu--Asp--Ile--Ile--Trp] ({NHcHex-CO}-[dDip]LDIIW-OH) | 820 | 50 |
| CC[C@H](C)[C@H](NC(=O)[C@H](CC(=O)O)NC(=O)[C@H](CC(C)C)NC(=O)C(C)(c1ccccc1)c1ccccc1)C(=O)N[C@H](C(=O)N[C@@H](Cc1c[nH]c2ccccc12)C(=O)O)[C@@H](C)CC [Example 28, Bppa--Leu--Asp--Ile--Ile--Trp] (X1-LDIIW-OH) | 8000 | 1700 |

More lines, in order of falling IC50 (ETA), values ahead:

| IC50 (ETA) [nM] | IC50 (ETB) [nM] | SMILES |
| --- | --- | --- |
| 10000 | 500 | CC[C@H](C)[C@H](NC(=O)[C@H](CC(=O)O)NC(=O)[C@H](CC(C)C)NC(=O)[C@H](NC(=O)C(C)(C)C)C(c1ccccc1)c1ccccc1)C(=O)N[C@H](C(=O)N[C@@H](Cc1c[nH]c2ccccc12)C(=O)O)[C@@H](C)CC [Example 38, tBu--D--Dip--Leu--Asp--Ile--Ile--Trp] (Piv-[dDip]LDIIW-OH) |
| 6430 | 833 | CC[C@H](C)[C@H](NC(=O)[C@H](CC(N)=O)NC(=O)[C@H](CC(C)C)NC(=O)[C@H](N)C(c1ccccc1)c1ccccc1)C(=O)N[C@H](C(=O)N[C@@H](Cc1c[nH]c2ccccc12)C(=O)O)[C@@H](C)CC [Example 70, D--Dip--Leu--Asn--Ile--Ile--Trp] (H-[dDip]LNIIW-OH) |
| 6000 | 3870 | CC[C@H](C)[C@H](NC(=O)[C@H](CC(=O)O)NC(=O)[C@H](CC(C)C)NC(=O)[C@H](N)Cc1c(C)c(C)c(C)c(C)c1C)C(=O)N[C@H](C(=O)N[C@@H](Cc1c[nH]c2ccccc12)C(=O)O)[C@@H](C)CC [Example 52, D--Pmp--Leu--Asp--Ile--Ile--Trp] (H-[X3]LDIIW-OH) |
| 5000 | 180 | CC[C@H](C)[C@H](NC(=O)[C@H](CC(=O)O)NC(=O)[C@H](CC(C)C)NC(=O)[C@H](NC(=O)Cc1cccnc1)C(c1ccccc1)c1ccccc1)C(=O)N[C@H](C(=O)N[C@@H](Cc1c[nH]c2ccccc12)C(=O)O)[C@@H](C)CC [Example 33, Pya--D--Dip--Leu--Asp--Ile--Ile--Trp] ({Acetyl(3-pyridyl)}-[dDip]LDIIW-OH) |
| 4000 | 500 | CC[C@H](C)[C@H](NC(=O)[C@H](CC(=O)O)NC(=O)[C@H](CC(C)C)NC(=O)[C@H](NC(=O)CC12CC3CC(CC(C3)C1)C2)C(c1ccccc1)c1ccccc1)C(=O)N[C@H](C(=O)N[C@@H](Cc1c[nH]c2ccccc12)C(=O)O)[C@@H](C)CC [Example 35, Ada--D--Dip--Leu--Asp--Ile--Ile--Trp] ({Acetyl(1-adamantyl)}-[dDip]LDIIW-OH) |
| 3700 | 6300 | CC[C@H](C)[C@H](NC(=O)[C@H](CC(=O)O)NC(=O)[C@H](CC(C)C)NC(=O)[C@H](NC(C)=O)C(c1ccccc1)c1ccccc1)C(=O)N[C@H](C(=O)N[C@@H](Cc1ccc(O)cc1)C(=O)O)[C@@H](C)CC [Example 88, Ac--D--Dip--Leu--Asp--Ile--Ile--Tyr] (Ac-[dDip]LDIIY-OH) |
| 1000 | 1500 | CC[C@H](C)[C@H](NC(=O)[C@H](CC(=O)O)NC(=O)[C@H](CC(C)C)NC(=O)[C@H](NC(=O)NC)C(c1ccccc1)c1ccccc1)C(=O)N[C@H](C(=O)N[C@@H](Cc1c[nH]c2ccccc12)C(=O)O)[C@@H](C)CC [Example 37, Me(U) --D--Dip--Leu--Asp--Ile--Ile--Trp] ({NHMe-CO}-[dDip]LDIIW-OH) |
| 1000 | 6000 | CC[C@H](C)[C@H](NC(=O)[C@H](CCC(=O)O)NC(=O)[C@H](CC(=O)O)NC(=O)[C@H](CC(C)C)NC(=O)[C@H](NC(C)=O)C(c1ccccc1)c1ccccc1)C(=O)N[C@@H](Cc1c[nH]c2ccccc12)C(=O)O [Example 19, Ac--D--Dip--Leu--Asp--Glu--Ile--Trp] (Ac-[dDip]LDEIW-OH) |
| 400 | 300 | CC[C@H](C)[C@H](NC(=O)[C@H](CC(=O)O)NC(=O)[C@H](C)NC(=O)[C@@H](Cc1ccccc1)NC(C)=O)C(=O)N[C@H](C(=O)N[C@@H](Cc1c[nH]c2ccccc12)C(=O)O)[C@@H](C)CC [Example 59, Ac--D--Phe--Ala--Asp--Ile--Ile--Trp] (Ac-[dF]ADIIW-OH) |
| 300 | 450 | CC[C@H](C)[C@H](NC(=O)[C@H](CC(=O)O)NC(=O)[C@H](CC(C)C)NC(=O)[C@@H](Cc1cccc2ccccc12)NC(C)=O)C(=O)N[C@H](C(=O)N[C@@H](Cc1c[nH]c2ccccc12)C(=O)O)[C@@H](C)CC [Example 45, Ac-1-D--Nal--Leu--Asp--Ile--Ile--Trp] (Ac-[d1Nal]LDIIW-OH) |
